# Legend:
# [1] = tested on: wild pansy (Viola tricolor L; VIOTR); experiment: Postemergence herbicidal activity, greenhouse, visual injury: wild pansy; format: in vivo; design: key: visual injury, 0–100%: 0 = no injury, 100 = complete kill
# Description: (§1) Evaluation of Postemergence Herbicidal Safening in Cereal Crops
# (§2) Seeds of the desired test plant species were planted in Sun Gro MetroMix® 306 planting mixture, which typically has a pH of 6.0 to 6.8 and an organic matter content of about 30 percent, in plastic pots with a surface area of 103.2 square centimeters (cm^2). When required to ensure good germination and healthy plants, a fungicide treatment and/or other chemical or physical treatment was applied. The plants were grown for 7-36 days (d) in a greenhouse with an approximate 14-hour (h) photoperiod which was maintained at about 18° C. during the day and 17° C. during the night. Nutrients and water were added on a regular basis and supplemental lighting was provided with overhead metal halide 1000-Watt lamps as necessary. The plants were employed for testing when they reached the second or third true leaf stage.
# (§3) Weighed amounts of esters (methyl) or salts (TEA [triethylammonium], K [potassium]) of 4-amino-3-chloro-6-(4-chloro-2-fluoro-3-methoxyphenyl)pyridine-2-carboxylic acid (Compound 1) were dissolved in a volume of 97:3 volume/volume (v/v) acetone/dimethylsulfoxide (DMSO) to obtain stock solutions. […] The concentrated stock solutions were diluted with an aqueous mixture of 1.5% v/v of Agri-dex crop oil concentrate to provide the appropriate application rates. Compound requirements are based upon a 12 mL application volume at a rate of 187 liters per hectare (L/ha). Stocks solutions of the safeners were prepared following the same procedure. Spray solutions of the safeners and experimental compound mixtures were prepared by adding the stock solutions to the appropriate amount of dilution solution to form a 12 mL spray solution with active ingredients in two-way combinations. Formulated compounds were applied to the plant material with an overhead Mandel track sprayer equipped with 8002E nozzles calibrated to deliver 187 L/ha over an application area of 0.503 square meters (m^2) at a spray height of 18 inches (43 centimeters (cm)) above average plant canopy. Control plants were sprayed in the same manner with the solvent blank.
# (§4) The treated plants and control plants were placed in a greenhouse as described above and watered by sub-irrigation to prevent wash-off of the test compounds. After 20-22 d, the condition of the test plants as compared with that of the control plants was determined visually and scored on a scale of 0 to 100 percent where 0 corresponds to no injury and 100 corresponds to complete kill.
# (§5) Colby's equation was used to determine the herbicidal effects expected from the mixtures (Colby, S. R. Calculation of the synergistic and antagonistic response of herbicide combinations. Weeds 1967, 15, 20-22.).
# (§6) The following equation was used to calculate the expected activity of mixtures containing two active ingredients, A and B: Expected=A+B−(A×B/100)
# (§7) A=observed efficacy of active ingredient A at the same concentration as used in the mixture.
# (§8) B=observed efficacy of active ingredient B at the same concentration as used in the mixture.
# barley (HORVW) = experiment: Postemergence herbicidal safening, greenhouse, visual injury: barley (HORVW)
# [2] = tested on: durum wheat (Triticum durum L; TRZDU); experiment: Postemergence herbicidal safening, greenhouse, visual injury: durum wheat; format: in vivo
# Description: as §1, §2, §3, §4, §5, §6, §7, §8
# [3] = tested on: Russian thistle (Salsola iberica L; SASKR); experiment: Postemergence herbicidal activity, greenhouse, visual injury: Russian thistle; format: in vivo; design: key: visual injury, 0–100%: 0 = no injury, 100 = complete kill
# Description: as §1, §2, §3, §4, §5, §6, §7, §8
# [4] = tested on: wheat (Triticum aestivum L; TRZAW); experiment: Postemergence herbicidal safening, greenhouse, visual injury: wheat (TRZAW); format: in vivo
# Description: as §1, §2, §3, §4, §5, §6, §7, §8
# [5] = tested on: barley (Hordeum vulgare L; HORVS); experiment: Postemergence herbicidal safening, greenhouse, visual injury: barley; format: in vivo
# Description: as §1, §2, §3, §4, §5, §6, §7, §8
# [6] = tested on: wheat (Triticum aestivum L; TRZAS); experiment: Postemergence herbicidal safening, greenhouse, visual injury: wheat; format: in vivo
# Description: as §1, §2, §3, §4, §5, §6, §7, §8
# [7] = tested on: corn poppy (Papaver rhoeas L; PAPRH); experiment: Postemergence herbicidal activity, greenhouse, visual injury: corn poppy; format: in vivo
# Description: as §1, §2, §3, §4, §5, §6, §7, §8
# [8] = tested on: purple deadnettle (Lamium purpureum L; LAMPU); experiment: Postemergence herbicidal activity, greenhouse, visual injury: purple deadnettle; format: in vivo; design: key: visual injury, 0–100%: 0 = no injury, 100 = complete kill
# Description: as §1, §2, §3, §4, §5, §6, §7, §8
# [9] = tested on: cleavers (Galium aparine L; GALAP); experiment: Postemergence herbicidal activity, greenhouse, visual injury: cleavers; format: in vivo; design: key: visual injury, 0–100%: 0 = no injury, 100 = complete kill
# Description: as §1, §2, §3, §4, §5, §6, §7, §8
# [10] = tested on: chickweed (Stellaria media L; STEME); experiment: Postemergence herbicidal activity, greenhouse, visual injury: chickweed; format: in vivo; design: key: visual injury, 0–100%: 0 = no injury, 100 = complete kill
# Description: as §1, §2, §3, §4, §5, §6, §7, §8
# [11] = tested on: bird's-eye speedwell (Veronica persica L; VERPE); experiment: Postemergence herbicidal activity, greenhouse, visual injury: bird's-eye speedwell; format: in vivo; design: key: visual injury, 0–100%: 0 = no injury, 100 = complete kill
# Description: as §1, §2, §3, §4, §5, §6, §7, §8
# [12] = tested on: wild buckwheat (Polygonum convolvulus L; POLCO); experiment: Postemergence herbicidal activity, greenhouse, visual injury: wild buckwheat; format: in vivo
# Description: as §1, §2, §3, §4, §5, §6, §7, §8
smiles,measurement,setting,value
"CC1COc2ccccc2N1C(=O)C(Cl)Cl (racemic) [Benoxacor, (±)-4-(dichloroacetyl)-3,4-dihydro-3-methyl-2H-1,4-benzoxazine, reference compound]",VIOTR Ob,[1]; applied alone at 17.5 g/ha,0%
same,VIOTR Ob,[1]; applied alone at 35 g/ha,0%
same,VIOTR Ob,[1]; applied alone at 70 g/ha,0%
same,VIOTR Ob,[1]; applied alone at 140 g/ha,0%
same,HORVW Ob (Observed values),barley (HORVW); safener 4.4 g/ha alone,0%
same,HORVW Ob (Observed values),barley (HORVW); safener 8.8 g/ha alone,0%
same,HORVW Ob (Observed values),barley (HORVW); safener 17.5 g/ha alone,0%
same,HORVW Ob (Observed values),barley (HORVW); safener 35 g/ha alone,0%
same,TRZDU Ob (Observed values),[2]; safener 4.4 g/ha alone,0%
same,TRZDU Ob (Observed values),[2]; safener 8.8 g/ha alone,0%
same,TRZDU Ob (Observed values),[2]; safener 17.5 g/ha alone,0%
same,TRZDU Ob (Observed values),[2]; safener 35 g/ha alone,0%
same,SASKR Ob,[3]; applied alone at 17.5 g/ha,0%
same,SASKR Ob,[3]; applied alone at 35 g/ha,0%
same,SASKR Ob,[3]; applied alone at 70 g/ha,0%
same,SASKR Ob,[3]; applied alone at 140 g/ha,0%
same,TRZAW Ob (Observed values),[4]; safener 4.4 g/ha alone,0%
same,TRZAW Ob (Observed values),[4]; safener 8.8 g/ha alone,0%
same,TRZAW Ob (Observed values),[4]; safener 17.5 g/ha alone,0%
same,TRZAW Ob (Observed values),[4]; safener 35 g/ha alone,0%
same,HORVS Ob,[5]; applied alone at 17.5 g/ha,0%
same,HORVS Ob,[5]; applied alone at 35 g/ha,0%
same,HORVS Ob,[5]; applied alone at 70 g/ha,0%
same,HORVS Ob,[5]; applied alone at 140 g/ha,0%
same,TRZAS Ob,[6]; applied alone at 17.5 g/ha,0%
same,TRZAS Ob,[6]; applied alone at 35 g/ha,0%
same,TRZAS Ob,[6]; applied alone at 70 g/ha,0%
same,TRZAS Ob,[6]; applied alone at 140 g/ha,0%
same,PAPRH Ob,[7]; applied alone at 17.5 g/ha,0%
same,PAPRH Ob,[7]; applied alone at 35 g/ha,0%
same,PAPRH Ob,[7]; applied alone at 70 g/ha,0%
same,PAPRH Ob,[7]; applied alone at 140 g/ha,0%
same,PAPRH Ob (Observed values),[7]; safener 4.4 g/ha alone,0
same,PAPRH Ob (Observed values),[7]; safener 8.8 g/ha alone,0
same,PAPRH Ob (Observed values),[7]; safener 17.5 g/ha alone,0
same,PAPRH Ob (Observed values),[7]; safener 35 g/ha alone,0
same,LAMPU Ob (Observed values),[8]; safener 4.4 g/ha alone,0
same,LAMPU Ob (Observed values),[8]; safener 8.8 g/ha alone,0
same,LAMPU Ob (Observed values),[8]; safener 17.5 g/ha alone,0
same,LAMPU Ob (Observed values),[8]; safener 35 g/ha alone,0
same,GALAP Ob,[9]; applied alone at 17.5 g/ha,0%
same,GALAP Ob,[9]; applied alone at 35 g/ha,0%
same,GALAP Ob,[9]; applied alone at 70 g/ha,0%
same,GALAP Ob,[9]; applied alone at 140 g/ha,0%
same,STEME Ob,[10]; applied alone at 17.5 g/ha,0%
same,STEME Ob,[10]; applied alone at 35 g/ha,0%
same,STEME Ob,[10]; applied alone at 70 g/ha,0%
same,STEME Ob,[10]; applied alone at 140 g/ha,0%
same,VERPE Ob,[11]; applied alone at 17.5 g/ha,0%
same,VERPE Ob,[11]; applied alone at 35 g/ha,0%
same,VERPE Ob,[11]; applied alone at 70 g/ha,0%
same,VERPE Ob,[11]; applied alone at 140 g/ha,0%
same,POLCO Ob,[12]; applied alone at 17.5 g/ha,0%
same,POLCO Ob,[12]; applied alone at 35 g/ha,0%
same,POLCO Ob,[12]; applied alone at 70 g/ha,0%
same,POLCO Ob,[12]; applied alone at 140 g/ha,0%
"NC(=O)NS(=O)(=O)c1ccccc1Cl [Compound 2-CBSU, N-(aminocarbonyl)-2-chlorobenzenesulfonamide, reference compound]",VIOTR Ob,[1]; applied alone at 17.5 g/ha,0%
same,VIOTR Ob,[1]; applied alone at 35 g/ha,0%
same,VIOTR Ob,[1]; applied alone at 70 g/ha,0%
same,VIOTR Ob,[1]; applied alone at 140 g/ha,0%
same,HORVW Ob (Observed values),barley (HORVW); safener 4.4 g/ha alone,0%
same,HORVW Ob (Observed values),barley (HORVW); safener 8.8 g/ha alone,0%
same,HORVW Ob (Observed values),barley (HORVW); safener 17.5 g/ha alone,0%
same,HORVW Ob (Observed values),barley (HORVW); safener 35 g/ha alone,0%
same,TRZDU Ob (Observed values),[2]; safener 4.4 g/ha alone,0%
same,TRZDU Ob (Observed values),[2]; safener 8.8 g/ha alone,0%
same,TRZDU Ob (Observed values),[2]; safener 17.5 g/ha alone,0%
same,TRZDU Ob (Observed values),[2]; safener 35 g/ha alone,0%
same,SASKR Ob,[3]; applied alone at 17.5 g/ha,0%
same,SASKR Ob,[3]; applied alone at 35 g/ha,0%
same,SASKR Ob,[3]; applied alone at 70 g/ha,0%
same,SASKR Ob,[3]; applied alone at 140 g/ha,0%
same,TRZAW Ob (Observed values),[4]; safener 4.4 g/ha alone,0%
same,TRZAW Ob (Observed values),[4]; safener 8.8 g/ha alone,0%
same,TRZAW Ob (Observed values),[4]; safener 17.5 g/ha alone,0%
same,TRZAW Ob (Observed values),[4]; safener 35 g/ha alone,0%
same,HORVS Ob,[5]; applied alone at 17.5 g/ha,0%
same,HORVS Ob,[5]; applied alone at 35 g/ha,0%
same,HORVS Ob,[5]; applied alone at 70 g/ha,0%
same,HORVS Ob,[5]; applied alone at 140 g/ha,0%
same,TRZAS Ob,[6]; applied alone at 17.5 g/ha,0%
same,TRZAS Ob,[6]; applied alone at 35 g/ha,0%
same,TRZAS Ob,[6]; applied alone at 70 g/ha,0%
same,TRZAS Ob,[6]; applied alone at 140 g/ha,0%
same,PAPRH Ob,[7]; applied alone at 17.5 g/ha,0%
same,PAPRH Ob,[7]; applied alone at 35 g/ha,0%
same,PAPRH Ob,[7]; applied alone at 70 g/ha,0%
same,PAPRH Ob,[7]; applied alone at 140 g/ha,0%
same,PAPRH Ob (Observed values),[7]; safener 4.4 g/ha alone,0
same,PAPRH Ob (Observed values),[7]; safener 8.8 g/ha alone,0
same,PAPRH Ob (Observed values),[7]; safener 17.5 g/ha alone,0
same,PAPRH Ob (Observed values),[7]; safener 35 g/ha alone,0
same,LAMPU Ob (Observed values),[8]; safener 4.4 g/ha alone,0
same,LAMPU Ob (Observed values),[8]; safener 8.8 g/ha alone,0
same,LAMPU Ob (Observed values),[8]; safener 17.5 g/ha alone,0
same,LAMPU Ob (Observed values),[8]; safener 35 g/ha alone,0
same,GALAP Ob,[9]; applied alone at 17.5 g/ha,0%
same,GALAP Ob,[9]; applied alone at 35 g/ha,0%
same,GALAP Ob,[9]; applied alone at 70 g/ha,0%
same,GALAP Ob,[9]; applied alone at 140 g/ha,0%
same,STEME Ob,[10]; applied alone at 17.5 g/ha,0%
same,STEME Ob,[10]; applied alone at 35 g/ha,0%
same,STEME Ob,[10]; applied alone at 70 g/ha,0%
same,STEME Ob,[10]; applied alone at 140 g/ha,0%
same,VERPE Ob,[11]; applied alone at 17.5 g/ha,0%
same,VERPE Ob,[11]; applied alone at 35 g/ha,0%
same,VERPE Ob,[11]; applied alone at 70 g/ha,0%
same,VERPE Ob,[11]; applied alone at 140 g/ha,0%
same,POLCO Ob,[12]; applied alone at 17.5 g/ha,0%
same,POLCO Ob,[12]; applied alone at 35 g/ha,0%
same,POLCO Ob,[12]; applied alone at 70 g/ha,0%
same,POLCO Ob,[12]; applied alone at 140 g/ha,0%
